From ChEMBL document CHEMBL1146841, “Discovery of thiochroman derivatives bearing a carboxy-containing side chain as orally active pure antiestrogens” (Bioorg Med Chem Lett, 2006)

Legend:
[1] = target: T1, Estrogen receptor (Homo sapiens) (UniProt P03372); experiment: Displacement of [3H]estradiol from human recombinant ERalpha relative to estradiol
T1 sequence (whole entry): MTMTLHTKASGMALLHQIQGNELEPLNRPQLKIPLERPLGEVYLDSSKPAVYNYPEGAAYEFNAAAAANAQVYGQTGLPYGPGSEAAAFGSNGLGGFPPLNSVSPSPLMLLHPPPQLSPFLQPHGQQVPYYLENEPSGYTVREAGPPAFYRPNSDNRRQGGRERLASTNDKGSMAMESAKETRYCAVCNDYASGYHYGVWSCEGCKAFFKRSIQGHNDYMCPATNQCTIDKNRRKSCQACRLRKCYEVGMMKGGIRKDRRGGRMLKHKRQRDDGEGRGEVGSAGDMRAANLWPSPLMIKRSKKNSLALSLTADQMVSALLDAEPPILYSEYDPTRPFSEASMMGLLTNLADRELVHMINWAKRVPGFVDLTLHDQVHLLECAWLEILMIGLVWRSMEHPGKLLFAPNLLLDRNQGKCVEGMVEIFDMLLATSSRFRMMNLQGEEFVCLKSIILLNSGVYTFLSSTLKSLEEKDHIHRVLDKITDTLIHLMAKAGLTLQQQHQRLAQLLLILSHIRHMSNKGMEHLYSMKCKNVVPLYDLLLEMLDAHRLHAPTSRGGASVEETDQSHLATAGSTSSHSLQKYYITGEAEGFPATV

Mus musculus [2] = experiment: Antagonist activity assessed as inhibition of estrogen-stimulated uterine weight gain in ovariectomized mouse at 10 mg/kg, sc; type: functional; settings: route subcutaneous
Mus musculus [3] = experiment: Antagonist activity assessed as inhibition of estrogen-stimulated uterine weight gain in ovariectomized mouse at 10 mg/kg, po; type: functional
Mus musculus [4] = experiment: Agonist activity assessed as increase in uterine weight in ovariectomized mouse at 10 mg/kg, sc; type: functional; settings: route subcutaneous
Mus musculus [5] = experiment: Antagonist activity assessed as inhibition of estrogen-stimulated uterine weight gain in ovariectomized mouse at 3 mg/kg, po; type: functional
Mus musculus [6] = experiment: Antagonist activity assessed as inhibition of estrogen-stimulated uterine weight gain in ovariectomized mouse at 30 mg/kg, po; type: functional
Mus musculus [7] = experiment: Antagonist activity assessed as inhibition of estrogen-stimulated uterine weight gain in ovariectomized mouse at 50 mg/kg, po; type: functional
[8] = (§1) AUC in Sprague-Dawley rat at 20 mg/kg, po; type: ADME, organism-based, Plasma; set-up: dose 20 mg/kg, route oral; settings: Sprague-Dawley, plasma
[9] = AUC in duodenally dosed Sprague-Dawley rat peripheral blood at 10 mg/kg; type: ADME, organism-based; set-up: dose 10 mg/kg, route intraduodenal
[10] = AUC in duodenally dosed Sprague-Dawley rat portal vein at 10 mg/kg; type: ADME, organism-based; set-up: dose 10 mg/kg, route intraduodenal; settings: portal vein plasma
Rattus norvegicus [11] = experiment: AUC in Sprague-Dawley rat at 10 mg/kg, iv; type: ADME, organism-based, Plasma; set-up: dose 10 mg/kg, route intravenous; settings: in vivo
[12] = Bioavailability in Sprague-Dawley rat; type: ADME, organism-based; settings: in vivo
Rattus norvegicus [13] = experiment: as §1; type: ADME, organism-based, Plasma; set-up: dose 20 mg/kg, route oral; settings: in vivo

SMILES	RBA [1]	inhibition in vivo at 10 mg/kg (Mus musculus [2])	inhibition in vivo at 10 mg/kg (Mus musculus [3])	Activity (Mus musculus [4])	inhibition in vivo at 3 mg/kg (Mus musculus [5])	inhibition in vivo at 30 mg/kg (Mus musculus [6])	inhibition in vivo at 50 mg/kg (Mus musculus [7])	AUC [8]	AUC [9]	AUC [10]	AUC (Rattus norvegicus [11])	bioavailability [12]	AUC (Rattus norvegicus [13])
COC(=O)C(CCCCCCCC[C@@H]1c2ccc(O)cc2SC[C@]1(C)c1ccc(O)cc1)CCCC(F)(F)C(F)(F)F (some centres undefined)	7%	52%	40%	-1%	–	–	–	–	–	–	–	–	–
C[C@]1(c2ccc(O)cc2)CSc2cc(O)ccc2[C@H]1CCCCCCCCC(CCC(F)(F)C(F)(F)C(F)(F)C(F)(F)F)C(=O)O (some centres undefined)	0.6%	–	93%	–	63%	96%	–	–	–	–	–	–	–
C[C@]1(c2ccc(O)cc2)CSc2cc(O)ccc2[C@H]1CCCCCCCCC(CCCCC(F)(F)C(F)(F)F)C(=O)O (some centres undefined)	1.3%	–	87%	–	69%	97%	–	–	–	–	–	–	–
C[C@]1(c2ccc(O)cc2)CSc2cc(O)ccc2[C@H]1CCCCCCCCC[S+]([O-])CCCC(F)(F)C(F)(F)F (some centres undefined)	200%	101%	51%	-2%	–	–	94%	3590 ng·h/mL	13 ng·h/mL	88 ng·h/mL	8220 ng·h/mL	22%	–
C[C@]1(c2ccc(O)cc2)CSc2cc(O)ccc2[C@H]1CCCCCCCCC(CCCC(F)(F)C(F)(F)C(F)(F)C(F)(F)F)C(=O)O (some centres undefined)	0.3%	–	93%	–	61%	99%	–	–	–	–	–	–	–
C[C@]1(c2ccc(O)cc2)COc2cc(O)ccc2[C@H]1CCCCCCCCCNS(=O)(=O)NCCCC(F)(F)C(F)(F)F	42%	100%	41%	1%	–	–	69%	–	–	–	–	–	–
C[C@]1(c2ccc(O)cc2)CSc2cc(O)ccc2[C@H]1CCCCCCCCCC(CCC(F)(F)C(F)(F)C(F)(F)C(F)(F)F)C(=O)O (some centres undefined)	0.3%	–	85%	–	38%	99%	–	–	–	–	–	–	–
C[C@]1(c2ccc(O)cc2)CSc2cc(O)ccc2[C@H]1CCCCCCCCC(CCCCCC(F)(F)C(F)(F)F)C(=O)O (some centres undefined)	0.8%	–	86%	–	52%	94%	–	–	–	–	–	–	–
C[C@]1(c2ccc(O)cc2)CSc2cc(O)ccc2[C@H]1CCCCCCCCCNC(=O)NS(=O)(=O)CCCC(F)(F)C(F)(F)F	1.2%	33%	–	8%	–	–	–	–	–	–	–	–	–
C[C@]1(c2ccc(O)cc2)CSc2cc(O)ccc2[C@H]1CCCCCCCCC(CCCC(F)(F)C(F)(F)F)C(=O)O (some centres undefined)	0.8%	95%	77%	1%	41%	94%	–	–	2040 ng·h/mL	2510 ng·h/mL	228000 ng·h/mL	46%	209000 ng·h/mL
C[C@]1(c2ccc(O)cc2)CSc2cc(O)ccc2[C@H]1CCCCCCCCCNS(=O)(=O)CCCC(F)(F)C(F)(F)F	52%	99%	31%	3%	–	–	73%	–	–	–	–	–	–
C[C@]1(c2ccc(O)cc2)CSc2cc(O)ccc2[C@H]1CCCCCCCCCC(CCCC(F)(F)C(F)(F)C(F)(F)C(F)(F)F)C(=O)O (some centres undefined)	0.4%	–	86%	–	55%	100%	–	–	–	–	–	–	–
C[C@]1(c2ccc(O)cc2)CSc2cc(O)ccc2[C@H]1CCCCCCCCCC(CCCC(F)(F)C(F)(F)F)C(=O)O (some centres undefined)	0.9%	–	81%	–	45%	–	–	–	–	–	–	–	–
C[C@]12CC[C@@H]3c4ccc(O)cc4C[C@@H](CCCCCCCCC[S+]([O-])CCCC(F)(F)C(F)(F)F)[C@H]3[C@@H]1CC[C@@H]2O (some centres undefined) [FULVESTRANT]	138%	95%	54%	-1%	29%	72%	86%	–	7 ng·h/mL	56 ng·h/mL	5300 ng·h/mL	16%	1670 ng·h/mL
C[C@]1(c2ccc(O)cc2)COc2cc(O)ccc2[C@H]1CCCCCCCCC[S+]([O-])CCCC(F)(F)C(F)(F)F (some centres undefined)	96%	94%	66%	1%	–	–	88%	–	–	–	–	–	–
C[C@]1(c2ccc(O)cc2)CSc2cc(O)ccc2[C@H]1CCCCCCCC(CCCC(F)(F)C(F)(F)F)C(=O)O (some centres undefined)	0.5%	–	20%	–	–	–	–	–	–	–	–	–	–
C[C@]1(c2ccc(O)cc2)CSc2cc(O)ccc2[C@H]1CCCCCCCCCC(CCCCC(F)(F)C(F)(F)F)C(=O)O (some centres undefined)	0.2%	–	79%	–	53%	96%	–	–	–	–	–	–	–
C[C@]1(c2ccc(O)cc2)COc2cc(O)ccc2[C@H]1CCCCCCCCCNC(=O)NCCCC(F)(F)C(F)(F)F	57%	77%	1%	10%	–	–	–	–	–	–	–	–	–
C[C@]1(c2ccc(O)cc2)CSc2cc(O)ccc2[C@H]1CCCCCCCCCCC(CCCC(F)(F)C(F)(F)F)C(=O)O (some centres undefined)	0.2%	–	62%	–	–	–	–	–	–	–	–	–	–
